PMC2728841, “The Crystal Structure of the Escherichia coli Autoinducer-2 Processing Protein LsrF” (PLoS ONE, 2009)

Molecular target: T1, LsrF (Escherichia coli, UniProt P76143)
T1 construct: His6-MBP fusion (pDEST-HisMBP) made in E. coli BL21, tag cut with TEV protease; decamer; model lacks residues 1-9, 177-180, 290-291
Assay: X-ray crystallography, crystal soak, […] Å
Type: binding
Settings: 100 mM ligand soak, 5 min, 100 mM Tris pH 8.0, 100 mM MgCl2, 27.5% PEG 400; aldolase active site; non-covalent model

T1 sequence (P76143 whole entry, the tested form may be a part): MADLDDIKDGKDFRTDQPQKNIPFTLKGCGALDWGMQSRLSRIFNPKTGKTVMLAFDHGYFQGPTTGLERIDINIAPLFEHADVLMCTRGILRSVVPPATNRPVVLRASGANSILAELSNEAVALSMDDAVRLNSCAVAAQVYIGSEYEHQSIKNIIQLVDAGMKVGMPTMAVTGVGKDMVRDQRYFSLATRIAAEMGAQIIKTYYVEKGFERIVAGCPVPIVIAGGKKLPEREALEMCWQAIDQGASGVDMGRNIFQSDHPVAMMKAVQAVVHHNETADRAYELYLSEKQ

SMILES: O=P(O)(O)OC[C@H]1OC(O)[C@H](O)[C@@H]1O (stereo partly shown) [ribose-5-phosphate]
- X-ray crystallography, crystal soak, 2.5 Å: The final model included one ribose-5-phosphate per chain
